From the NIST ThermoML archive (doi:10.1016/j.jct.2005.11.005) come the findings set out here.

Numbers after ± are expanded uncertainties.

For data set [1] the following is noted: DTA; for Normal melting temperature: Crystal.
Data set [2] can be described thus: Molar enthalpy of transition or fusion. Particulars: Crystal; DSC.

For the compound `OC[C@H]1O[C@H](O[C@H]2O[C@H](CO)[C@@H](O)[C@H](O)[C@H]2O)[C@H](O)[C@@H](O)[C@@H]1O` [α-trehalose], the Normal melting temperature in data set [1] came to 209.4 ± 0.5 °C. Also, the Glass transition temperature in data set [1] (Glass) is 120.0 ± 2 °C. The “Molar enthalpy of transition or fusion” value in data set [2] worked out at 12.8 ± 0.669 kcal/mol.
As for `O.O.OC[C@H]1O[C@H](O[C@H]2O[C@H](CO)[C@@H](O)[C@H](O)[C@H]2O)[C@H](O)[C@@H](O)[C@@H]1O` [D-(+)-trehalose dihydrate], the Normal melting temperature in data set [1] was found to be 99.10 ± 0.5 °C. For the same compound, the “Molar enthalpy of transition or fusion” value in data set [2] was determined as 26.2 ± 0.669 kcal/mol.
